Assay results taken from patent publication US20250085300A1, “STABILITY-ENHANCING COMPOSITIONS AND METHODS OF PREPARING COMPOUNDS” (FOGHORN THERAPEUTICS INC., priority 2021, published 2025).
Entries after “also recorded” stand apart in the source; their conditions may differ.

Key:
BRD9 = target: T1, BRD9 (Homo sapiens, UniProt Q9H8M2); test: BRD9 western blot in synovial sarcoma tumors in vivo (Example 11); parameters: species or system mice; settings: 1 mg/kg i.p. for 4 weeks
T1 construct: Tumors were lysed with 1×RIPA lysis buffer; from tissue; host or cells: SYO-1 xenograft tumours from BALB/c Nude mice
T1 sequence (Q9H8M2 1-597): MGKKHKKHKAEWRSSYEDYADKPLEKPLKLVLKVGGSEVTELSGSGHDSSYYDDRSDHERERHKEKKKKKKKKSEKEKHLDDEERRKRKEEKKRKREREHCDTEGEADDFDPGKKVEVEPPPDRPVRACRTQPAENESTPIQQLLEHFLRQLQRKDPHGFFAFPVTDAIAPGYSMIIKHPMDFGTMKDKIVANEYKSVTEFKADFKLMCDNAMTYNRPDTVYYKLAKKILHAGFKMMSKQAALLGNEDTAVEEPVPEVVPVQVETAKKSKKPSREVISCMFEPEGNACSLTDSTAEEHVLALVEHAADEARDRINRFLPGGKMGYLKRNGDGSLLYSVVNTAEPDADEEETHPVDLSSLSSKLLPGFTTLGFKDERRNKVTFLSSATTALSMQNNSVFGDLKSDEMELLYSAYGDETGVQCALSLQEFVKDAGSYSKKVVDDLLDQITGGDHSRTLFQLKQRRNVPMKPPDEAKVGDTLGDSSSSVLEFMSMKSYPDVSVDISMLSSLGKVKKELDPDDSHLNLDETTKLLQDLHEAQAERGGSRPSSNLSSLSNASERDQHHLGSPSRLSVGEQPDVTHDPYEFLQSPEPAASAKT
Procedure: Method: Mice were treated with D1, 1 mg/kg, i.p. for 4 weeks. Mice were then euthanized, and tumors were collected at 8 hours, 72 hours, and 168 hours post last dose. Tumors were lysed with 1x RIPA lysis buffer (Boston BioProducts, BP-115D) with protease and phosphatase protein inhibitor (Roche Applied Science #04906837001 & 05892791001). Equal amounts of lysate (30 μg) were loaded in 4-12% Bis-Tris Midi Protein Gels in 1×MOPS buffer; samples ran at 120 V for 120 minutes. Protein was transferred to membrane with TransBlot at 250 mA for 150 minutes, and then membranes were blocked with Odyssey blocking buffer for 1 hour at room temperature. Membranes were hybridized overnight in cold room with primary antibodies. Images acquired using Li-COR imaging system (Li-COR Biotechnology, Lincoln, Nebraska).

[1] = target: T2, Nanoluciferase-BRD9 fusion protein (Homo sapiens, UniProt Q9H8M2); test: SYO1 BRD9 NanoLuc degradation assay; type: cell-based; settings: 6 hours
T2 construct: expressed in transfected cells
T2 sequence (Q96SW2 whole entry partner, one chain of several, the tested form may be a part): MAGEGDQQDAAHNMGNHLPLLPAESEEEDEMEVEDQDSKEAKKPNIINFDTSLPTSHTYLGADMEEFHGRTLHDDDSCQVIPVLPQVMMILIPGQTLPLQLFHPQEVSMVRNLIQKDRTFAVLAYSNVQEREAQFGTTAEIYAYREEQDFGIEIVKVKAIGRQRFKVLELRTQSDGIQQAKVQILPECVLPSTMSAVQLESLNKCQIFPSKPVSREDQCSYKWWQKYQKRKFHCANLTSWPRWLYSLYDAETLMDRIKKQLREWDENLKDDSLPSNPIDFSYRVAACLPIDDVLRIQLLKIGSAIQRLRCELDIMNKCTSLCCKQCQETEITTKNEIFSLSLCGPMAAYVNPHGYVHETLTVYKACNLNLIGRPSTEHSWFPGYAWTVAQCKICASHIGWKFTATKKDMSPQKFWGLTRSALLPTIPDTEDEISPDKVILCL
Procedure: Procedure: A stable SYO-1 cell line expressing 3×FLAG-NLuc-BRD9 was generated. On day 0 cells were seeded in 30 μL media into each well of 384-well cell culture plates. The seeding density was 8000 cells/well. On day 1, cells were treated with 30 nL DMSO or 30 nL of 3-fold serially DMSO-diluted compounds (10 points in duplicates with 1 μM as final top dose). Subsequently plates were incubated for 6 hours in a standard tissue culture incubator and equilibrated at room temperature for 15 minutes. Nanoluciferase activity was measured by adding 15 μL of freshly prepared Nano-Glo Luciferase Assay Reagent (Promega N1130), shaking the plates for 10 minutes and reading the bioluminescence using an EnVision reader.
Results: The Inhibition % was calculated using the following formula: % Inhibition=100×(LumHC−LumSample)/(LumHC−LumLC). DMSO treated cells are employed as High Control (HC) and 1 μM of a known BRD9 degrader standard treated cells are employed as Low Control (LC).

[2] = test system: synovial sarcoma cell lines (SYO1, Yamato, HS-SY-II, and ASKA); test: Growth of synovial sarcoma cell lines (Example 2: IncuCyte confluency, crystal violet, colonies); type: cell-based; settings: 1 μM or indicated concentrations
Procedure: (§1) Cells were treated with DMSO or the BRD9 degrader, Compound 1, at indicated concentrations, and proliferation was monitored from day 7 to day 14 by measuring confluency over time using an IncuCyte live cell analysis system (FIG. 4). Growth medium and compounds were refreshed every 3-4 days.
(§2) Cells were seeded into 12-well plates and treated with DMSO, 1 μM BRD9 inhibitor, Compound 2 (also known as BI-7273, see Martin et al, J Med Chem. 59 (10): 4462-4475 (2016); see structure of compound 2 below), or 1 μM BRD9 degrader, Compound 1.
(§3) The number of cells was optimized for each cell line. Growth medium and compounds were refreshed every 3-5 days. SYO1, Yamato, A549, 293T and HS-SY-II cells were fixed and stained at day 11. ASKA cells were fixed and stained at day 23. Staining was done by incubation with crystal violet solution (0.5 g Crystal Violet, 27 ml 37% Formaldehyde, 100 mL 10×PBS, 10 mL Methanol, 863 dH20 to 1 L) for 30 min followed by 3×washes with water and drying the plates for at least 24 h at room temperature. Subsequently plates were scanned on an Odyssey CLx Imaging system (FIG. 5).
(§4) Cells were seeded into 96-well ultra-low cluster plate (Costar, #7007) in 200 μL complete media and treated at day 2 with DMSO, Staurosporin, or BRD9 degrader, Compound 1, at indicated doses (FIG. 2C). Media and compounds were changed every 5 d and cell colonies were imaged at day 14.

SYO1 cells [3] = test: Cell cycle analysis (Click-iT Plus EdU flow cytometry); type: cell-based; settings: 200 nM or 1 μM, 8 or 13 days, compared to DMSO and lenalidomide
Procedure: (§5) Procedure: SYO1 cells were treated for 8 or 13 days with DMSO, a BRD9 degrader (Compound 1) at 200 nM or 1 μM, or an E3 ligase binder (lenalidomide) at 200 nM. Compounds were refreshed every 5 days. Cell cycle analysis was performed using the Click-iT™ Plus EdU Flow Cytometry Assay (Invitrogen). The apoptosis assay was performed using the Annexin V-FITC Apoptosis Detection Kit (Sigma A9210). Assays were performed according to the manufacturer's protocol.

[4] = test system: synovial sarcoma cell lines (SYO1, HS-SY-II, and ASKA); test: Growth of synovial sarcoma cell lines, crystal violet day 14 (Example 3); type: cell-based; settings: daily treatment
Procedure: (§6) Procedure: Cells were seeded into 6-well or 12-well plates and were treated daily with a BRD9 degrader (Compound 1), a bromo-domain BRD9 binder (Compound 2), E3 ligase binder (lenalidomide), DMSO, or staurosporin (positive control for cell killing), at indicated concentrations. The number of cells was optimized for each cell line. Growth media was refreshed every 5 days. By day 14, medium was removed, cells were washed with PBS, and stained using 500 μL of 0.005% (w/v) crystal violet solution in 25% (v/v) methanol for at least 1 hour at room temperature. Subsequently plates were scanned on an Odyssey CLx Imaging system.

[5] = test system: non-synovial control cancer cell lines (RD, HCT116, and Calu6); test: Growth of non-synovial control cancer cell lines, crystal violet day 14 (Example 3); type: cell-based; settings: daily treatment
Procedure: as §6

SYO1 cells [6] = test: Apoptosis assay (Annexin V-FITC); type: cell-based; settings: 200 nM or 1 μM, 8 days, compared to DMSO controls
Procedure: as §5

[7] = test system: non-synovial control cancer cell lines (293T, A549, G401); test: Growth of non-synovial control cancer cell lines (Example 2); type: cell-based
Procedure: as §1, §2, §3, §4

Row | time after dose with complete degradation of BRD9 (BRD9) | BRD9 level in tumor (western blot) (BRD9; tumors 8, 72, 168 hours post last dose) | IC50 [1] [nM] | Compound | inhibition of cell growth [2] | numbers of cells in the S-phase of the cell cycle (SYO1 cells [3]) | inhibition of cell growth [4] | inhibition of cell growth [5] | numbers of early- and late-apoptotic cells (SYO1 cells [6]) | inhibition of cell growth [7]
1 | up to 168 hours | complete degradation | 0.13 | COc1cc(-c2cn(C)c(=O)c3cnc(N4CCC4)cc23)cc(OC)c1CN1CCC(CN2CCC3(CC2)CN(c2ccc4c(c2)C(=O)N(C2CCC(=O)NC2=O)C4)C3)CC1 (racemic) [Compound D1, 3-[6-(7-[[1-([4-[6-(azetidin-1-yl)-2-methyl-1-oxo-2,7-naphthyridin-4-yl]-2,6-dimethoxyphenyl]methyl)piperidin-4-yl]methyl]-2,7-diazaspiro[3.5]nonan-2-yl)-1-oxo-3H-isoindol-2-yl]piperidine-2,6-dione] | – | – | – | – | – | –
2 | – | – | – | COc1cc(-c2cn(C)c(=O)c3cnccc23)cc(OC)c1CN(C)CC(=O)NCCOCCOCCNc1cccc2c1C(=O)N(C1CCC(=O)NC1=O)C2=O (stereo not shown) [Compound 1] | inhibition of the growth of the cells | reduced numbers of cells in the S-phase | inhibition of the growth of the cells; also recorded: most significant growth inhibition | did not result in inhibition of the growth | increased numbers of early- and late-apoptotic cells | does not result in inhibition of the growth
3 | – | – | – | COc1cc(-c2cn(C)c(=O)c3cnccc23)cc(OC)c1CN(C)C [Compound 2] | inhibition of the growth of the cells | – | inhibition of the growth of the cells | did not result in inhibition of the growth | – | does not result in inhibition of the growth
